Read-outs that look alike come from different tables or passages of the source.
Legend:
Assay type in all cases: cell-based
[1] = system: Septoria tritici; assay: Microtest, leaf blotch on wheat caused by Septoria tritici (SEPTTR), Example 2; conditions: single compound, 7 days
[2] = system: Botrytis cinerea
[3] = system: Pyricularia oryzae; conditions: PYRIOR, single compound, 7 days
[4] = system: Alternaria solani; assay: Microtest, early blight caused by Alternaria solani (ALTESO), Example 1; conditions: single compound, 7 days
[5] = system: Colletotrichum orbiculare; assay: Microtiterplate test, anthracnose caused by Colletotrichum orbiculare (COLLLA), Example 1; conditions: single compound, 7 days
[6] = system: Septoria tritici; conditions: 7 days

Work on `CON(Cc1ccc(-c2noc(C(F)(F)F)n2)cc1)C(=O)C1CC1` [Compound II-2, N-methoxy-N-[[4-[5-(trifluoromethyl)-1,2,4-oxadiazol-3-yl]phenyl]methyl]cyclopropanecarboxamide] yielded an Observed efficacy ([1]; 0.25 ppm) of 9%.
Work on `Cc1cccc(-n2nnn(C)c2=O)c1COc1ccn(-c2ccc(Cl)cc2)n1` [Methyltetraprol, metyltetraprole] yielded an Observed efficacy ([2]; 7 days) of 52%, an Observed efficacy ([3]; 0.004 ppm) of 3% and an Observed efficacy ([3]; 0.016 ppm) of 11%. It also gave an Observed efficacy ([4]; 0.004 ppm) of 12%, an Observed efficacy ([4]; 0.016 ppm) of 31% and an Observed efficacy ([5]; 0.063 ppm) of 0%. For the same compound, the Observed efficacy ([1]; 0.004 ppm) was 0%.
Work on `CCC(=O)Oc1c(OC)ccnc1C(=O)N[C@@H](C)C(=O)O[C@@H](C)[C@@H](C)c1ccccc1C` [Compound II-1, [(1 S,2S)-1-methyl-2-(o-tolyl)propyl] (2S)-2-[(4-methoxy-3-propanoyloxy-pyridine-2-carbonyl)amino]propanoate] yielded an Observed efficacy [2] of 13%, an Observed efficacy ([3]; 1 ppm) of 10% and an Observed efficacy [6] of 15%. The Observed efficacy ([4]; 1 ppm) was 42%, the Observed efficacy ([5]; 0.25 ppm) was 0% and the Observed efficacy ([5]; 1 ppm) was 0%.
